The results in this text go back to publication PMC10763615, “Identification and engineering of potent cyclic peptides with selective or promiscuous binding through biochemical profiling and bioinformatic data analysis” (RSC Chemical Biology, 2023).

Holding throughout (type): binding
In one test the target is T1, FGF-R4 ECD (Homo sapiens, UniProt P22455).
T1 construct: DNA constructs for the extracellular domain (ECD) of human FGF-; HPC4 (C); made in house; host or cells: HEK 293-6E
T1 sequence (P22455 22-369 limits assumed): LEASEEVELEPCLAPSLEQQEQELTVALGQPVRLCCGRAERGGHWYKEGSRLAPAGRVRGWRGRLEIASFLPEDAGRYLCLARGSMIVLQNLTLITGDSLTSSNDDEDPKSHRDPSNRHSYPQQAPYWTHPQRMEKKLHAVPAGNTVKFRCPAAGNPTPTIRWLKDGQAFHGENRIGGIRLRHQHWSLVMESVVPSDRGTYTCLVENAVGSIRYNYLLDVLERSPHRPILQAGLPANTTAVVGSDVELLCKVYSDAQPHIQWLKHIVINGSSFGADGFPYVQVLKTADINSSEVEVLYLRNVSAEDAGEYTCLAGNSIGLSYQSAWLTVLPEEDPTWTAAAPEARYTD
Briefly: single concentration BLI of crude peptides. The following applies: read-out: KD (4). In outline:
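Biotinylated FGF-R ECD on streptavidin biosensors was dipped into ~1 μM crude peptide in PBS pH7.4 with 0.05% Tween-20 and 0.01% BSA for association, then into buffer for dissociation, and followed by BLI. Fitted KD values were adjusted for peptide concentration measured by UPLC-CAD.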

Another test deals with T2, FGF-R3C ECD (Homo sapiens, UniProt P22607).
T2 sequence (P22607 23-375 limits assumed): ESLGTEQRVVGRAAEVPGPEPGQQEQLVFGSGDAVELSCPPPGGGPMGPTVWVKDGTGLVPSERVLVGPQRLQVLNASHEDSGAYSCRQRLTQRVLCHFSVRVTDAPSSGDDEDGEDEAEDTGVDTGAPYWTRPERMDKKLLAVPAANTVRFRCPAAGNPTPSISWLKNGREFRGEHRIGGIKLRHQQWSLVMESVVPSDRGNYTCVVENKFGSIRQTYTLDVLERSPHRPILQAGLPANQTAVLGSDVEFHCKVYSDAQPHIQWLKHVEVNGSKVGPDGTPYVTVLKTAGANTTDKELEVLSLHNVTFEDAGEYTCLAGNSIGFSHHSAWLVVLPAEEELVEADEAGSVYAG
As to the kind of experiment: biochemical. On the set-up: DNA constructs for the extracellular domain (ECD) of human FGF-; HPC4 (C); made in house; host or cells: HEK 293-6E. In outline: (§1)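 Biolayer interferometry with biotinylated FGF-R ECD on streptavidin biosensors in PBS pH 7.4, 0.05% Tween-20, 0.01% BSA. Multi-concentration: purified peptide dilution series fitted to a multi-point KD model.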

The target in a further test is T3, FGF-R1C ECD (Homo sapiens, UniProt P11362).
T3 sequence (P11362 22-376 limits assumed): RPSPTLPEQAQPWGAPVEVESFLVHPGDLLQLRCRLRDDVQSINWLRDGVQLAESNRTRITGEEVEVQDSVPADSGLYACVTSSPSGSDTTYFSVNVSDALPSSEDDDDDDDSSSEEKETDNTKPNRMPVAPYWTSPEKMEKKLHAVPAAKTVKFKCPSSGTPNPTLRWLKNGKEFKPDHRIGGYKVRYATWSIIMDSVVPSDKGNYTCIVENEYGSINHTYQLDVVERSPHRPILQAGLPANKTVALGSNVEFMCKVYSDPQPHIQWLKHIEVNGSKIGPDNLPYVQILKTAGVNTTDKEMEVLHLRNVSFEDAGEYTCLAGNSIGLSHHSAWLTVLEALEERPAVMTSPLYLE
Briefly: biochemical. On the set-up: DNA constructs for the extracellular domain (ECD) of human FGF-; HPC4 (C); made in house; host or cells: HEK 293-6E. The method, boiled down:
as §1

Where [1] appears, read: crude T18 selection 1 (1:1:1) peptides, single concentration BLI (Table S4).

Like-named read-outs stand apart in the source and are kept apart here. Positions of bridges follow the written chain, without caps; N, C: chain ends. Residues, ends and D or L forms follow the SMILES beside them. A value given as a limit tells only on which side of the number the result lay.

By Kd is commonly meant the constant that tells how readily two partners part at equilibrium. With `CC[C@H](C)[C@@H]1NC(=O)[C@H](CC(=O)O)NC(=O)[C@H](Cc2ccc(O)cc2)NC(=O)[C@@H](NC(=O)[C@H](CCSC)NC(C)=O)CSSC[C@@H](C(=O)NCC(=O)N[C@@H](CO)C(=O)NCC(=O)N[C@@H](CO)C(=O)N[C@@H](CC(=O)O)C(=O)N[C@@H](Cc2ccc(O)cc2)C(=O)N[C@@H](CCCCN)C(=O)N[C@@H](CC(=O)O)C(=O)N[C@@H](CC(=O)O)C(=O)N[C@@H](CC(=O)O)C(=O)N[C@@H](CC(=O)O)C(=O)N[C@@H](CCCCN)C(N)=O)NC(=O)[C@H](Cc2c[nH]cn2)NC(=O)[C@H](Cc2ccc(O)cc2)NC(=O)[C@H](C(C)C)NC(=O)[C@H]([C@@H](C)O)NC(=O)[C@H]([C@@H](C)CC)NC(=O)[C@H](Cc2ccc(O)cc2)NC(=O)[C@H](CC(=O)O)NC(=O)[C@H](Cc2ccccc2)NC(=O)[C@H](C(C)C)NC1=O` (Ac-MCYDIVFDYITVYHCGSGSDYKDDDDK-NH2; disulfide 2-15), the results for the Kd on FGF-R4 ECD (setting [1]), on FGF-R3C ECD and on FGF-R1C ECD were 21 nM, more than 10000 nM and more than 10000 nM, respectively.

Consider `CC[C@H](C)[C@@H]1NC(=O)[C@@H](NC(=O)[C@H](CCSC)NC(C)=O)CSSC[C@@H](C(=O)NCC(=O)N[C@@H](CO)C(=O)NCC(=O)N[C@@H](CO)C(=O)N[C@@H](CC(=O)O)C(=O)N[C@@H](Cc2ccc(O)cc2)C(=O)N[C@@H](CCCCN)C(=O)N[C@@H](CC(=O)O)C(=O)N[C@@H](CC(=O)O)C(=O)N[C@@H](CC(=O)O)C(=O)N[C@@H](CC(=O)O)C(=O)N[C@@H](CCCCN)C(N)=O)NC(=O)[C@H](C(C)C)NC(=O)[C@H](C(C)C)NC(=O)[C@H](Cc2c[nH]c3ccccc23)NC(=O)[C@H](Cc2ccccc2)NC(=O)[C@H](CC(=O)O)NC(=O)[C@H](CO)NC(=O)[C@H](CC(C)C)NC(=O)[C@H](CCCNC(=N)N)NC(=O)[C@H](Cc2c[nH]cn2)NC1=O` (Ac-MCIHRLSDFWVVCGSGSDYKDDDDK-NH2; disulfide 2-13), for which the Kd at FGF-R4 ECD (crude NNK peptides, single concentration BLI (Table S3)) is 41 nM; at FGF-R3C ECD, 49 nM; at FGF-R1C ECD, 19 nM.

For the molecule `CC[C@H](C)[C@@H]1NC(=O)[C@H](CCCCN)NC(=O)[C@H](Cc2ccccc2)NC(=O)[C@H](Cc2ccccc2)NC(=O)[C@H](Cc2c[nH]cn2)NC(=O)[C@H]([C@@H](C)CC)NC(=O)[C@@H]2CCCN2C(=O)[C@@H](NC(=O)[C@H](CCSC)NC(C)=O)CSSC[C@@H](C(=O)NCC(=O)N[C@@H](CO)C(=O)NCC(=O)N[C@@H](CO)C(=O)N[C@@H](CCC(=O)O)C(=O)N[C@@H](CCC(=O)O)C(=O)NCC(=O)N[C@@H](CO)C(=O)NCC(=O)N[C@@H](CO)C(=O)N[C@@H](CC(=O)O)C(=O)N[C@@H](Cc2ccc(O)cc2)C(=O)N[C@@H](CCCCN)C(=O)N[C@@H](CC(=O)O)C(=O)N[C@@H](CC(=O)O)C(=O)N[C@@H](CC(=O)O)C(=O)N[C@@H](CC(=O)O)C(=O)N[C@@H](CCCCN)C(N)=O)NC(=O)[C@H](Cc2c[nH]cn2)NC(=O)[C@H](CCCNC(=N)N)NC(=O)[C@H](Cc2ccc(O)cc2)NC(=O)[C@H](C(C)C)NC1=O` (Ac-MCPIHFFKIVYRHCGSGSEEGSGSDYKDDDDK-NH2; disulfide 2-14), the values for the Kd on FGF-R4 ECD (setting [1]), at FGF-R3C ECD and at FGF-R1C ECD were 10 nM, more than 10000 nM and 10 nM, respectively.

As to `CSCC[C@H](NC(C)=O)C(=O)N[C@H]1CSSC[C@@H](C(=O)NCC(=O)N[C@@H](CO)C(=O)NCC(=O)N[C@@H](CO)C(=O)N[C@@H](CC(=O)O)C(=O)N[C@@H](Cc2ccc(O)cc2)C(=O)N[C@@H](CCCCN)C(=O)N[C@@H](CC(=O)O)C(=O)N[C@@H](CC(=O)O)C(=O)N[C@@H](CC(=O)O)C(=O)N[C@@H](CC(=O)O)C(=O)N[C@@H](CCCCN)C(N)=O)NC(=O)[C@H](Cc2c[nH]cn2)NC(=O)[C@H](CC(C)C)NC(=O)[C@H](C(C)C)NC(=O)[C@H](CCC(N)=O)NC(=O)[C@H](Cc2c[nH]c3ccccc23)NC(=O)[C@H](Cc2ccc(O)cc2)NC(=O)[C@H](CCCNC(=N)N)NC(=O)[C@H](C(C)C)NC(=O)[C@H](Cc2ccc(O)cc2)NC(=O)[C@H](Cc2ccc(O)cc2)NC(=O)[C@H](C)NC(=O)[C@H](CC(=O)O)NC1=O` (Ac-MCDAYYVRYWQVLHCGSGSDYKDDDDK-NH2; disulfide 2-15), the values for the Kd on FGF-R4 ECD (setting [1]), on FGF-R3C ECD and at FGF-R1C ECD were 36 nM, more than 10000 nM and more than 10000 nM, respectively.

On to `CC[C@H](C)[C@@H]1NC(=O)[C@H](CCC(=O)O)NC(=O)[C@H](Cc2ccc(O)cc2)NC(=O)[C@H](CCC(=O)O)NC(=O)[C@H](CCCCN)NC(=O)[C@@H](NC(=O)[C@H](CCSC)NC(C)=O)CSSC[C@@H](C(=O)NCC(=O)N[C@@H](CO)C(=O)NCC(=O)N[C@@H](CO)C(=O)N[C@@H](CC(=O)O)C(=O)N[C@@H](Cc2ccc(O)cc2)C(=O)N[C@@H](CCCCN)C(=O)N[C@@H](CC(=O)O)C(=O)N[C@@H](CC(=O)O)C(=O)N[C@@H](CC(=O)O)C(=O)N[C@@H](CC(=O)O)C(=O)N[C@@H](CCCCN)C(N)=O)NC(=O)[C@H](Cc2ccc(O)cc2)NC(=O)[C@H](CCC(N)=O)NC(=O)[C@H](CC(C)C)NC(=O)[C@H](CCCCN)NC(=O)[C@H](Cc2ccc(O)cc2)NC(=O)[C@H](Cc2c[nH]c3ccccc23)NC(=O)[C@H](CC(C)C)NC1=O` (Ac-MCKEYEILWYKLQYCGSGSDYKDDDDK-NH2; disulfide 2-15), for which the Kd is 17 nM at FGF-R4 ECD (setting [1]), more than 10000 nM at FGF-R3C ECD and more than 10000 nM at FGF-R1C ECD.

On to `CC[C@H](C)[C@@H]1NC(=O)[C@H](CCCCN)NC(=O)[C@H](Cc2ccc(O)cc2)NC(=O)[C@H](Cc2ccc(O)cc2)NC(=O)[C@H](Cc2c[nH]cn2)NC(=O)[C@H](Cc2c[nH]c3ccccc23)NC(=O)[C@H](CC(C)C)NC(=O)[C@@H](NC(=O)[C@H](CCSC)NC(C)=O)CSSC[C@@H](C(=O)NCC(=O)N[C@@H](CO)C(=O)NCC(=O)N[C@@H](CO)C(=O)N[C@@H](CC(=O)O)C(=O)N[C@@H](Cc2ccc(O)cc2)C(=O)N[C@@H](CCCCN)C(=O)N[C@@H](CC(=O)O)C(=O)N[C@@H](CC(=O)O)C(=O)N[C@@H](CC(=O)O)C(=O)N[C@@H](CC(=O)O)C(=O)N[C@@H](CCCCN)C(N)=O)NC(=O)[C@H](CCCCN)NC(=O)[C@H](CCC(N)=O)NC(=O)[C@H](CCCNC(=N)N)NC(=O)[C@H](CCCNC(=N)N)NC(=O)[C@H](Cc2ccccc2)NC1=O` (Ac-MCLWHYYKIFRRQKCGSGSDYKDDDDK-NH2; disulfide 2-15), for which the values for the Kd on FGF-R4 ECD (setting [1]), on FGF-R3C ECD and on FGF-R1C ECD were 8 nM, more than 10000 nM and 96 nM, respectively.

Regarding `CSCC[C@H](NC(C)=O)C(=O)N[C@H]1CSSC[C@@H](C(=O)NCC(=O)N[C@@H](CO)C(=O)NCC(=O)N[C@@H](CO)C(=O)N[C@@H](CC(=O)O)C(=O)N[C@@H](Cc2ccc(O)cc2)C(=O)N[C@@H](CCCCN)C(=O)N[C@@H](CC(=O)O)C(=O)N[C@@H](CC(=O)O)C(=O)N[C@@H](CC(=O)O)C(=O)N[C@@H](CC(=O)O)C(=O)N[C@@H](CCCCN)C(N)=O)NC(=O)[C@H](Cc2ccc(O)cc2)NC(=O)[C@H](C(C)C)NC(=O)[C@H](CC(C)C)NC(=O)[C@H](C(C)C)NC(=O)[C@H](CCCCN)NC(=O)[C@H](CC(N)=O)NC(=O)[C@H](CC(C)C)NC(=O)[C@H](Cc2ccccc2)NC(=O)[C@H](CC(N)=O)NC(=O)[C@H](Cc2ccc(O)cc2)NC(=O)[C@H](Cc2ccc(O)cc2)NC1=O` (Ac-MCYYNFLNKVLVYCGSGSDYKDDDDK-NH2; disulfide 2-14), the Kd at FGF-R4 ECD (setting [1]) is 8 nM; on FGF-R3C ECD, more than 10000 nM; on FGF-R1C ECD, more than 10000 nM.
